Assay results as given in paper PMC12002339 (Proceedings of the National Academy of Sciences of the …, 2025).

T1: OmpF3 (Escherichia coli, UniProt P02931)
T1 sequence (P02931 23-362): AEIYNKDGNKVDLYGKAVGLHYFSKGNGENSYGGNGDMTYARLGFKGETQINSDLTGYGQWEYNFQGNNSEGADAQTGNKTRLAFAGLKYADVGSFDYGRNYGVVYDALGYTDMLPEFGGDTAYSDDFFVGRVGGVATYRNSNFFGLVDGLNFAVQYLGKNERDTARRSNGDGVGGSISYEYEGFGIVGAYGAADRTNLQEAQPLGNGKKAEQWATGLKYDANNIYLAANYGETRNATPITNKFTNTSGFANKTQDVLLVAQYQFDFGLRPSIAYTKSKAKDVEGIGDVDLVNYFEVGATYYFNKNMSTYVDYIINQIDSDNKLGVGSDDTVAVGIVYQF

T2: OmpF3–MlaA (Escherichia coli, UniProt P02931+P76506)
T2 sequence (P02931 23-362): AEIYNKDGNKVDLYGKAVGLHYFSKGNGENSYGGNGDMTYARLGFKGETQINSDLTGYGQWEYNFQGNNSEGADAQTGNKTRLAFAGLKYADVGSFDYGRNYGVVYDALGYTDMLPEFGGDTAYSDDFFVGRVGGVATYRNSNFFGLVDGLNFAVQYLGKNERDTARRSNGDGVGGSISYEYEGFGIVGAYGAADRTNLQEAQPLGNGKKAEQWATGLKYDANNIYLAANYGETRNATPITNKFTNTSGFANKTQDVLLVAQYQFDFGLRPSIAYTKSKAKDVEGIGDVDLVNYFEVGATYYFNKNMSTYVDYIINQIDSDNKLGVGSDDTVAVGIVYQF
T2 sequence (P76506 18-251): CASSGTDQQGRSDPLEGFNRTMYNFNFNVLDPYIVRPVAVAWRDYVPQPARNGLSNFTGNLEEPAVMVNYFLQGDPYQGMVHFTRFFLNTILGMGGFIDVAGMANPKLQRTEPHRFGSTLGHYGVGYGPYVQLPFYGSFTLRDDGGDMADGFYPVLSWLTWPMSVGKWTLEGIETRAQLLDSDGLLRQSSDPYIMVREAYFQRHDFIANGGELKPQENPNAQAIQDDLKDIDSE

T3: MlaC (Escherichia coli, UniProt P0ADV7)
T3 sequence (P0ADV7 22-211): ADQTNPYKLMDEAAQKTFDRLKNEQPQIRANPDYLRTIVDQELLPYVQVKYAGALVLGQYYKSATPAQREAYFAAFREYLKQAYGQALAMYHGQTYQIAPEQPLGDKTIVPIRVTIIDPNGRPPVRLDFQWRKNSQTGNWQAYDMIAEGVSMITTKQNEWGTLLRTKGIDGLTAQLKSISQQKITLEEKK

B1: OmpF (natural protein)
chain: AEIYNKDGNKVDLYGKAVGLHYFSKGNGENSYGGNGDMTYARLGFKGETQINSDLTGYGQWEYNFQGNNSEGADAQTGNKTRLAFAGLKYADVGSFDYGRNYGVVYDALGYTDMLPEFGGDTAYSDDFFVGRVGGVATYRNSNFFGLVDGLNFAVQYLGKNERDTARRSNGDGVGGSISYEYEGFGIVGAYGAADRTNLQEAQPLGNGKKAEQWATGLKYDANNIYLAANYGETRNATPITNKFTNTSGFANKTQDVLLVAQYQFDFGLRPSIAYTKSKAKDVEGIGDVDLVNYFEVGATYYFNKNMSTYVDYIINQIDSDNKLGVGSDDTVAVGIVYQF

Experiments:
OmpF3 = molecular target: T1, OmpF3; test: native MS of lipid-bound complex; format: binding; conditions: incubated with synthetic lipid; negative ion mode; MlaA-free trimer
OmpF3–MlaA = molecular target: T2, OmpF3–MlaA; test: native MS of lipid-bound complex; format: binding; conditions: incubated with synthetic lipid
MlaC = molecular target: T3, MlaC; test: native MS of lipid-loaded MlaC after buffer exchange; format: binding; conditions: 5 µM delipidated MlaC, 25 µM lipid, 5 min, 2xCMC C8E4, 200 mM ammonium acetate pH 7.0, no OmpF3–MlaA
native MS = molecular target: the molecule itself; test: native MS

Row | Molecule | degree of phospholipid binding (OmpF3–MlaA; positive and negative ion mode) | degree of phospholipid binding (OmpF3–MlaA) | other results
1 | CCCCCCCC/C=C\CCCCCCCC(=O)OC[C@H](COP(=O)([O-])OCC[N+](C)(C)C)OC(=O)CCCCCCC/C=C\CCCCCCCC [DOPC] | DOPC binds with high affinity to OmpF3 and OmpF3–MlaA | – | degree of phospholipid binding (OmpF3): DOPC binds with high affinity to OmpF3 and OmpF3–MlaA
2 | CCCCCCCC/C=C\CCCCCCCC(=O)OC[C@H](COP(=O)(O)OCCN)OC(=O)CCCCCCC/C=C\CCCCCCCC [DOPE] | DOPE binds with intermediate affinity, and its binding is strongly increased by MlaA | – | –
3 | CCCCCCCC/C=C\CCCCCCCC(=O)OC[C@H](COP(=O)(O)OCC(O)CO)OC(=O)CCCCCCC/C=C\CCCCCCCC (stereo partly shown) [DOPG] | – | – | % MlaC loaded (MlaC): ~ 5%
4 | CCCCCCCCCCCCCCCCCC(=O)OC[C@H](COP(=O)(O)OCC(O)CO)OC(=O)CCCCCCCCCCCCCCCCC (stereo partly shown) [DSPG] | – | Varying the degree of saturation (DSPG) or length (POPG) of the lipid chains | –
5 | CCCCCCCC/C=C\CCCCCCCC(=O)O[C@H](COC(=O)CCCCCCCCCCCCCCC)COP(=O)(O)OCC(O)CO (stereo partly shown) [POPG] | – | Varying the degree of saturation (DSPG) or length (POPG) of the lipid chains | –
6 | B1 | – | – | stoichiometry N (native MS): 3
